This note sets out measurements from US20100015126A1, “Methods of Binding of Cross-Beta Structures By Chaperones” (priority 2006, published 2010).

The target in assay [1] is T1, recombinant human HSP90beta (Homo sapiens, UniProt P08238).
T1 construct: purchased Dr. S. Rüdiger, Cellular Protein Chemistry, Utrecht University
The assay is described as follows: Competition ELISA: HSP90 binding under influence of crossbeta binding compounds and geldanamycin. The following applies: 20 μg/ml HSP90, geldanamycin 10 μM; for Binding of HSP90 to coated Aβ25-35 under influence of compound: sRAGE 79 μg/ml, HSA 10 μM. On the procedure: Binding of chaperones to immobilized (misfolded) protein ligands was determined using an enzyme linked immuno sorbent assay (ELISA) approach. For this purpose 50 μl/well of potential ligands at indicated concentrations or coat buffer only for control and background measurement purposes, were coated overnight at 4° C. or coated for 1 h at room temperature, with motion, in 50 mM NaHCO3 pH 9.6 (coat buffer). In general, ligands were coated at 5 μg/ml, unless stated otherwise. […] Native haemoglobin (Sigma-Aldrich, H7379), albumin, IgIV Gammagard and ovalbumin controls were prepared from lyophilized stocks. The controls were prepared by dissolving lyophilized proteins at 1 mg/ml in PBS upon resuspending by pipetting, followed by a 30 minutes period at the roller device, at room temperature. The protein solutions were centrifuged for 10 minutes at 16,000*g and diluted in coat buffer. […] Plates were washed three times and incubated in triplicate with indicated chaperone dilution series, at 50 μl/well, for 1 h at room temperature, with constant motion. For HSP90, 5 mM DTT is incorporated in the binding buffer (PBS/0.1% Tween20) to avoid unwanted disulfide bond formation of the HSP90. […] After four wash cycles, secondary antibodies were added to the wells when required, 50 μl/well, for 45′ at room temperature, with motion. RAMPO and SWARPO were used at 3000 times dilution. […] In a second experiment with more immobilized misfolded proteins and controls, the detection of bound HSP90 with the mix of two anti-HSP90 antibodies was achieved by mixing 1:1500 SWARPO with 1:3000 RAMPO. After 5 washes with wash buffer followed by two washes with PBS, binding of antibodies was assessed. […] The reaction was stopped after 5 minutes with 1% H2SO4 in H2O. Plates were read at 450 nm. Triplicates were averaged and standard deviations calculated. Background signals obtained with buffer-coated wells were subtracted (binding of primary antibody to empty wells), as well as background signals obtained with ligand-coated wells in which the chaperones were omitted (binding of primary and secondary antibody to coated ligands). Subsequently, sub-optimal concentrations of chaperones for binding to misfolded protein ligands are determined, and these concentrations are used for inhibition studies.
On the technique in general: In an ELISA, binding on a coated surface is turned into a signal by an enzyme label.

The target of assay [2] is T2, Escherichia coli HSP70 family member DnaK (Escherichia coli, UniProt P0A6Y8).
T2 construct: purchased Stressgen (Ann Arbor, Mich., USA) SPP-630
Kind of assay: Competition ELISA: DnaK binding under influence of ThT and Congo red. The following applies: 20 μg/ml DnaK; 1 mM dye. On the procedure: Binding of chaperones to immobilized (misfolded) protein ligands was determined using an enzyme linked immuno sorbent assay (ELISA) approach. For this purpose 50 μl/well of potential ligands at indicated concentrations or coat buffer only for control and background measurement purposes, were coated overnight at 4° C. or coated for 1 h at room temperature, with motion, in 50 mM NaHCO3 pH 9.6 (coat buffer). In general, ligands were coated at 5 μg/ml, unless stated otherwise. For example, BiP binding peptides 6BB# and oxLDL were coated at 50 μg/ml. Native haemoglobin (Sigma-Aldrich, H7379), albumin, IgIV Gammagard and ovalbumin controls were prepared from lyophilized stocks. The controls were prepared by dissolving lyophilized proteins at 1 mg/ml in PBS upon resuspending by pipetting, followed by a 30 minutes period at the roller device, at room temperature. The protein solutions were centrifuged for 10 minutes at 16,000*g and diluted in coat buffer. After coating the plates were washed at least three times with 50 mM Tris-HCl pH 7.3, 150 mM NaCl, 0.1% v/v Tween20, and blocked with Blocking reagent (Roche Diagnostics, Almere, The Netherlands; 11112589001), for 1 h at room temperature, with motion. Plates were washed three times and incubated in triplicate with indicated chaperone dilution series, at 50 μl/well, for 1 h at room temperature, with constant motion. For HSP90, 5 mM DTT is incorporated in the binding buffer (PBS/0.1% Tween20) to avoid unwanted disulfide bond formation of the HSP90. Plates were washed three times and incubated with anti-FLAG antibody (mouse antibody, M2, peroxidase conjugate; Sigma, A-8592) for BiP-FLAG-His, anti-His-tag antibody (Mouse Monoclonal Antibody, Cat. No. 70796, Novagen [0.2 mg/ml]) for HSP60, a 1:1 mix of 500-fold diluted anti-HSP90beta antibodies (Stressgen, SPA-643 [mouse monoclonal IgM], SPA-646 [rabbit polyclonal]) for HSP90 and an anti-DnaK antibody (Stressgen, 023SPA-880D [mouse monoclonal antibody]) for DnaK. After four wash cycles, secondary antibodies were added to the wells when required, 50 μl/well, for 45′ at room temperature, with motion. RAMPO and SWARPO were used at 3000 times dilution. […] In a second experiment with more immobilized misfolded proteins and controls, the detection of bound HSP90 with the mix of two anti-HSP90 antibodies was achieved by mixing 1:1500 SWARPO with 1:3000 RAMPO. After 5 washes with wash buffer followed by two washes with PBS, binding of antibodies was assessed. […] Plates were read at 450 nm. Triplicates were averaged and standard deviations calculated. […] Subsequently, sub-optimal concentrations of chaperones for binding to misfolded protein ligands are determined, and these concentrations are used for inhibition studies. […]

Assay [3] addresses T3, human mitochondrial HSP60 (Homo sapiens, UniProt P10809).
T3 construct: Dr. W. van Eden, Utrecht University; host or cells: E. coli
The assay is described as follows: Competition ELISA: HSP60 binding under influence of ThT or Congo red. The conditions noted are these: concentration series of compound.

T2 sequence (P0A6Y8 whole entry): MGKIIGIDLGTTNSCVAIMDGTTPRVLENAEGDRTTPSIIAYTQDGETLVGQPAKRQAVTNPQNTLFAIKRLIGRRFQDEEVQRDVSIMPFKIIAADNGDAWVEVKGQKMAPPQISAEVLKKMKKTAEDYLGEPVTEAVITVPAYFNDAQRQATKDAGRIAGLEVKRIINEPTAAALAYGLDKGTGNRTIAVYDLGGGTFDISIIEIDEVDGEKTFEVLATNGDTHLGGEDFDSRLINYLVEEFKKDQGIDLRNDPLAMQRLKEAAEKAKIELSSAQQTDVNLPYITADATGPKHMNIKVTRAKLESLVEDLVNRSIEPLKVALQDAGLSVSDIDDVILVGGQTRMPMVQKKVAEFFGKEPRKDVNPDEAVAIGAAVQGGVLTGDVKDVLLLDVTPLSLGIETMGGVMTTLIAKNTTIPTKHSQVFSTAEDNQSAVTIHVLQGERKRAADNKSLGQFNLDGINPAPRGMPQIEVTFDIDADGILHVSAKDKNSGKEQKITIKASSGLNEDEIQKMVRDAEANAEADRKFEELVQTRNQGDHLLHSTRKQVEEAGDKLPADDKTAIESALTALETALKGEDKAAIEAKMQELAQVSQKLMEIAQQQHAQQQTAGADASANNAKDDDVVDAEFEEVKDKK
T1 sequence (P08238 whole entry): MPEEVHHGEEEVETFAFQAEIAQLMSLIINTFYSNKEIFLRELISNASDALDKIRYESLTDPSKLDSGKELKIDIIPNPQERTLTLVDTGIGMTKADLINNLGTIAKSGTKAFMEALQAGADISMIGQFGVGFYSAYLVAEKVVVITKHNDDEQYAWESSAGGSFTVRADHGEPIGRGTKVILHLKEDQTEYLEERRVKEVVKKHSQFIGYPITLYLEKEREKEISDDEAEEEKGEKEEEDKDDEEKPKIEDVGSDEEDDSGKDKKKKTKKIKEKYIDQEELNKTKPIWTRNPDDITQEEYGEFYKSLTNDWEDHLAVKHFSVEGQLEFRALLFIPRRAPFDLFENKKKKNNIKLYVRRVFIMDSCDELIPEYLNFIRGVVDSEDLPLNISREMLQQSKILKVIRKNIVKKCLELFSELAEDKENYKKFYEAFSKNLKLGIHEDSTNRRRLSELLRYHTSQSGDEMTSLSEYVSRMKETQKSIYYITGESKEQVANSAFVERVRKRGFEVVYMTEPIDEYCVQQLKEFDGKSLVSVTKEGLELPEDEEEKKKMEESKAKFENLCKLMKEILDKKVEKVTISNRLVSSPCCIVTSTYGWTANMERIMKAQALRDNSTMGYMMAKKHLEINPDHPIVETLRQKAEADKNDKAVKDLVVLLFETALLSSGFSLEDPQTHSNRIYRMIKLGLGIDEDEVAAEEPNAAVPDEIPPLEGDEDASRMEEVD
T3 sequence (P10809 27-573): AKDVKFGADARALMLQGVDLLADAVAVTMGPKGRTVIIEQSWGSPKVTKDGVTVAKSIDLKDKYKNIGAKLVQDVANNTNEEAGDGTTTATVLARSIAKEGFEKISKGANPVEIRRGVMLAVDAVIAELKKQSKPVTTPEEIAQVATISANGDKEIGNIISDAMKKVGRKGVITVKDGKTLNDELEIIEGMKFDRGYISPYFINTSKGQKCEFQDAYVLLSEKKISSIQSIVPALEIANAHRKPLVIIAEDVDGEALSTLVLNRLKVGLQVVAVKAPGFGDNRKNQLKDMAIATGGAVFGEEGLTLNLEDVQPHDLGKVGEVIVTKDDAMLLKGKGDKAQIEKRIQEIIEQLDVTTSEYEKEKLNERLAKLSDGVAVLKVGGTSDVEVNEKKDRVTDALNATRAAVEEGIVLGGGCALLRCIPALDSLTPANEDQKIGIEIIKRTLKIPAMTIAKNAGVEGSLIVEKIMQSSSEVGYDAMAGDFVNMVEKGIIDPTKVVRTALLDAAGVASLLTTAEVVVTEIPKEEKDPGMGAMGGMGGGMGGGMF

As to `Nc1c(/N=N/c2ccc(-c3ccc(/N=N/c4cc(S(=O)(=O)O)c5ccccc5c4N)cc3)cc2)cc(S(=O)(=O)O)c2ccccc12` [Congo red], in assay [1], the “Binding of HSP90 to coated HbAGE under influence of compound” value is reported as “inhibited” and the “Binding of HSP90 to coated Aβ25-35 under influence of compound” value is recorded as “stimulatory activity”. Also, in assay [2], the “Binding of DnaK to immobilized HbAGE under influence of compound” value is given as “inhibit” and the “Binding of DnaK to immobilized dIgIV-86 under influence of compound” value is reported as “inhibit”. Further, in assay [3] (10 or 30 μg/ml HSP60), the “Binding of HSP60 to Aβ42 under influence of compound” value was “inhibit” and the “Binding of HSP60 to BSA-AGE under influence of compound” value was “inhibited”.
Regarding `Cc1ccc2c(c1)sc(-c1ccc(N(C)C)cc1)[n+]2C.[Cl-]` [ThT, Thioflavin T], in assay [1], the “Binding of HSP90 to coated HbAGE under influence of compound” value was “had no influence” and the “Binding of HSP90 to coated Aβ25-35 under influence of compound” value is “stimulatory activity”. Besides, in assay [2], the “Binding of DnaK to immobilized HbAGE under influence of compound” value is on record as “inhibit” and the “Binding of DnaK to immobilized dIgIV-86 under influence of compound” value is listed as “inhibit”. Moreover, the “Binding of HSP60 to misfolded IgIV (dIgIV-86) under influence of compound” value in assay [3] (10 μg/ml HSP60) was “stimulates”. Moreover, the “Binding of HSP60 to Aβ42 under influence of compound” value in assay [3] (10 or 30 μg/ml HSP60) was “inhibit”.
